O=C(O)Cn1cnnn1
Conditions	solubility (mole fraction)
in acetone, 288.23 K	0.0964
in acetone, 293.32 K	0.105
in acetone, 298.24 K	0.115
in acetone, 303.31 K	0.125
in acetone, 308.18 K	0.136
in acetone, 313.26 K	0.149
in acetone, 318.27 K	0.162
in acetone, 323.23 K	0.175
in ethanol, 283.27 K	0.0517
in ethanol, 288.17 K	0.0621
in ethanol, 293.46 K	0.075
in ethanol, 298.22 K	0.0891
in ethanol, 303.31 K	0.108
in ethanol, 308.17 K	0.129
in ethanol, 313.23 K	0.157
in ethanol, 318.21 K	0.189
in ethanol, 323.26 K	0.229
in ethyl acetate, 288.27 K	0.0121
in ethyl acetate, 293.28 K	0.0138
in ethyl acetate, 298.19 K	0.0154
in ethyl acetate, 303.31 K	0.0173
in ethyl acetate, 308.22 K	0.0193
in ethyl acetate, 313.26 K	0.0218
in ethyl acetate, 318.16 K	0.0246
in ethyl acetate, 323.21 K	0.0281
in isopropanol, 288.17 K	0.0282
in isopropanol, 293.22 K	0.0374
in isopropanol, 298.26 K	0.0491
in isopropanol, 303.2 K	0.063
in isopropanol, 308.21 K	0.0794
in isopropanol, 313.29 K	0.0985
in isopropanol, 318.24 K	0.119
in isopropanol, 323.27 K	0.143
in methanol, 288.18 K	0.145
in methanol, 293.29 K	0.155
in methanol, 298.23 K	0.173
in methanol, 303.22 K	0.199
in methanol, 308.24 K	0.233
in methanol, 313.34 K	0.276
in methanol, 318.22 K	0.326
in methanol, 323.19 K	0.383
in n-butyl acetate, 288.22 K	0.00443
in n-butyl acetate, 293.3 K	0.00483
in n-butyl acetate, 298.33 K	0.00552
in n-butyl acetate, 303.18 K	0.00647
in n-butyl acetate, 308.22 K	0.00773
in n-butyl acetate, 313.3 K	0.00931
in n-butyl acetate, 318.24 K	0.0111
in n-butyl acetate, 323.28 K	0.0133
in n-propanol, 288.27 K	0.0312
in n-propanol, 293.21 K	0.0386
in n-propanol, 298.23 K	0.0464
in n-propanol, 303.29 K	0.0557
in n-propanol, 308.33 K	0.068
in n-propanol, 313.18 K	0.0839
in n-propanol, 318.22 K	0.106
in n-propanol, 323.32 K	0.135
in water, 283.17 K	0.00729
in water, 288.31 K	0.0109
in water, 293.28 K	0.016
in water, 298.24 K	0.0234
in water, 303.19 K	0.0348
in water, 308.3 K	0.0549
in water, 313.17 K	0.0826
in water, 318.22 K	0.122
in water, 323.16 K	0.173
